Results published in patent publication US9040663B2, “Melanocortin receptor-specific peptides” (AstraZeneca AB, priority 2009, dated 2015).
Like-named read-outs stand apart in the source and are kept apart here. Positions of bridges follow the written chain, without caps; N, C: chain ends. Non-standard residues stand in square brackets, D forms with d. Residues, ends and D or L forms follow the SMILES beside them. dPhe(4-CN) = N#Cc1ccc(C[C@@H](N)C(=O)O)cc1; Orn = NCCC[C@H](N)C(=O)O

Target: hMC4-R (Homo sapiens (Human), UniProt P32245)
Assay: High and low density hMC4-R functional assay (cAMP, HEK293-T-REx-MC4-R cells)
Format: cell-based
Conditions: for Emax: NDP-α-MSH = 100%, read-out: Intrinsic Activity (%)
Experimental: The cells were then dispensed into 96-well plates (BD 353916) in 198 μL (about 5×10^4) cells/well and incubated for 10 minutes at 37° C. The compound to be tested was diluted with DMSO to a final concentration of 1 mM. […] 120 μL of the 1 mM compound stock was pipetted in the second column on the plate. […] All assay samples were run in duplicate (i.e. each sample was in two low dox and two high dox plates, respectively). The plates were gently shaken and incubated for 15 minutes at 37° C.

[1] = 0.1 ng/mL Doxycycline (low density hMC4-R system)
[2] = 10 ng/mL Doxycycline (high density hMC4-R system)

Chain of hMC4-R (P32245 whole entry): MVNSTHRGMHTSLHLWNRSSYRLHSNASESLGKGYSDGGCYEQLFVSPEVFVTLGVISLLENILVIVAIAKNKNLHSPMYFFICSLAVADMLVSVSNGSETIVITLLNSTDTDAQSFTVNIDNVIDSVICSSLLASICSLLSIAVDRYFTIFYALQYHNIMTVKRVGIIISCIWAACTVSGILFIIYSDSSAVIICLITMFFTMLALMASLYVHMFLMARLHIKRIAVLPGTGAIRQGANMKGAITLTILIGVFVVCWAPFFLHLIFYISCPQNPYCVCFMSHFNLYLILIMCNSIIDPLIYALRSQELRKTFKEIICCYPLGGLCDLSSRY

Row | EC50 [1] | Emax [1] | EC50 [2] | Emax [2] | SMILES
1 | 4 nM | 23% | 0.45 nM | 85% | CC(=O)N[C@H](CCCNC(=N)N)C(=O)N[C@H]1CC(=O)NCCCC[C@@H](C(N)=O)NC(=O)[C@H](Cc2c[nH]c3ccccc23)NC(=O)[C@H](CCCNC(=N)N)NC(=O)[C@@H](Cc2ccc(C#N)cc2)NC(=O)[C@H](CCC(N)=O)NC1=O [Example 81, Ac-D-Arg-cyclo(Asp-Gln-D-Phe(4-CN)-Arg-Trp-Lys)-NH2]
2 | 15 nM | 36% |  | 94% | CC(=O)N[C@@H](CCCNC(=N)N)C(=O)N[C@H]1CCC(=O)NCCC[C@@H](C(=O)O)NC(=O)[C@H](Cc2c[nH]c3ccccc23)NC(=O)[C@H](CCCNC(=N)N)NC(=O)[C@@H](Cc2ccc(C#N)cc2)NC(=O)[C@H](CC(N)=O)NC1=O [Example 85, Ac-Arg-cyclo(Glu-Asn-D-Phe(4-CN)-Arg-Trp-Orn)-OH]
3 |  | 32% | 0.09 nM | 92% | CC(=O)N[C@@H](CCCNC(=N)N)C(=O)N[C@H]1CCCNC(=O)CC[C@@H](C(N)=O)NC(=O)[C@H](Cc2c[nH]c3ccccc23)NC(=O)[C@H](CCCNC(=N)N)NC(=O)[C@@H](Cc2ccc(C#N)cc2)NC(=O)[C@H](CCC(N)=O)NC1=O [Example 94, Ac-Arg-cyclo(Orn-Gln-D-Phe(4-CN)-Arg-Trp-Glu)-NH2]
4 |  | 49% | 0.1 nM | 100% | CC(=O)N[C@@H](CCCNC(=N)N)C(=O)N[C@H]1CCC(=O)NCCC[C@@H](C(=O)O)NC(=O)[C@H](Cc2c[nH]c3ccccc23)NC(=O)[C@H](CCCNC(=N)N)NC(=O)[C@@H](Cc2cc(F)c(F)c(F)c2)NC(=O)[C@H](CCC(N)=O)NC1=O [Example 97, Ac-Arg-cyclo(Glu-Gln-D-Phe(3,4,5-triF)-Arg-Trp-Orn)-NH2]
5 | 0.45 nM | 47% | 0.14 nM | 100% | CC(=O)N[C@@H](CCCNC(=N)N)C(=O)N[C@H]1CCCNC(=O)CC[C@@H](C(N)=O)NC(=O)[C@H](Cc2c[nH]c3ccccc23)NC(=O)[C@H](CCCNC(=N)N)NC(=O)[C@@H](Cc2cc(F)c(F)c(F)c2)NC(=O)[C@H](CCC(N)=O)NC1=O [Example 98, Ac-Arg-cyclo(Orn-Gln-D-Phe(3,4,5-triF)-Arg-Trp-Glu)-NH2]
6 | 18 nM |  |  |  | CC(=O)N[C@@H](CCCNC(=N)N)C(=O)N[C@H]1CCC(=O)NCCC[C@@H](C(N)=O)NC(=O)[C@H](Cc2c[nH]c3ccccc23)NC(=O)[C@H](CCCNC(=N)N)NC(=O)[C@@H](Cc2ccc(F)cc2)NC(=O)[C@@H]2CCCN2C1=O [Example 102, Ac-Arg-cyclo(Glu-Pro-D-Phe(4-F)-Arg-Trp-Orn)-OH]
7 |  | 16% | 10 nM | 100% | CC(=O)N[C@@H](CCCNC(=N)N)C(=O)N[C@H]1CC(=O)NCCCC[C@@H](C(N)=O)NC(=O)[C@H](Cc2c[nH]c3ccccc23)NC(=O)[C@H](CCCNC(=N)N)NC(=O)[C@@H](Cc2ccccc2F)NC(=O)[C@@H]2CCCN2C1=O [Example 104, Ac-Arg-cyclo(Asp-Pro-D-Phe(2-F)-Arg-Trp-Lys)-NH2]
8 |  | 2% |  | 69% | CC(=O)N[C@@H](CCCNC(=N)N)C(=O)N[C@H]1CCC(=O)NCCC[C@@H](C(=O)O)NC(=O)[C@H](Cc2c[nH]c3ccccc23)NC(=O)[C@H](CCCNC(=N)N)NC(=O)[C@@H](Cc2ccc(C#N)cc2)NC(=O)[C@H](CCC(=O)O)NC1=O [Example 109, Ac-Arg-cyclo(Glu-Glu-D-Phe(4-CN)-Arg-Trp-Orn)-OH] (Ac-REE[dPhe(4-CN)]RW[Orn]-OH; lactam 2-7)
